In US20110320392A1, “METHODS FOR PREDICTING CANCER RESPONSE TO EGFR INHIBITORS” (priority 2009, published 2011):

How the values were obtained:
[1] = tested on: Mia PaCa-2; settings: pancreatic cancer cell line Mia PaCa-2, validation set (Tzeng et al., 2007); cited from earlier work
[2] = tested on: Bxpc-3; settings: pancreatic cancer cell line Bxpc-3, validation set (Tzeng et al., 2007); cited from earlier work
[3] = tested on: H1650; assay: erlotinib sensitivity, apoptosis assay after 48 h; assay type: cell-based, human; settings: NSCLC cell line H1650, apoptosis assay after 48 h
Description: (§1) The lung cancer cell lines were analyzed for in vitro sensitivity to the EGFR-tyrosine kinase inhibitor erlotinib. Cell lines were designated as “resistant” or sensitive” based upon an empirically determined threshold.
(§2) The panel of NSCLC cell lines were separated into sensitive and resistant to erlotinib treatment using an apoptosis assay after 48 h as a measure (Balko et al., 2006). […] All cell lines were passaged as previously published and harvested after 2 days growth in serum-containing media (Balko et al., 2006). Lung cancer cell lines sensitive to erlotinib (H322 and HCC827) and resistant to erlotinib (H2122 and H820) and pancreatic cancer cell lines sensitive to erlotinib (Aspc-1 and Bxpc-3) and resistant to erlotinib (Mia PaCa-2 and Panc-1) were used for validation of the predictor, as previously described, again harvested after 2 days growth in serum-containing media (Tzeng et al., 2007).

[4] = tested on: PC-9; assay: erlotinib sensitivity, apoptosis assay after 48 h; assay type: cell-based, human; settings: NSCLC cell line PC-9, apoptosis assay after 48 h
Description: as §1, §2

[5] = tested on: H1975; assay: erlotinib sensitivity, apoptosis assay after 48 h; assay type: cell-based, human; settings: NSCLC cell line H1975, apoptosis assay after 48 h
Description: as §1, §2

[6] = tested on: H3255; assay: erlotinib sensitivity, apoptosis assay after 48 h; assay type: cell-based, human; settings: NSCLC cell line H3255, apoptosis assay after 48 h
Description: as §1, §2

[7] = tested on: H358; assay: erlotinib sensitivity, apoptosis assay after 48 h; assay type: cell-based, human; settings: NSCLC cell line H358, apoptosis assay after 48 h
Description: as §1, §2

[8] = tested on: H460; assay: erlotinib sensitivity, apoptosis assay after 48 h; assay type: cell-based, human; settings: NSCLC cell line H460, apoptosis assay after 48 h
Description: as §1, §2

[9] = tested on: UKY-29; assay: erlotinib sensitivity, apoptosis assay after 48 h; assay type: cell-based, human; settings: NSCLC cell line UKY-29, apoptosis assay after 48 h
Description: as §1, §2

[10] = tested on: A549; assay: erlotinib sensitivity, apoptosis assay after 48 h; assay type: cell-based, human; settings: NSCLC cell line A549, apoptosis assay after 48 h
Description: as §1, §2

[11] = tested on: Panc-1; settings: pancreatic cancer cell line Panc-1, validation set (Tzeng et al., 2007); cited from earlier work
[12] = tested on: Aspc-1; settings: pancreatic cancer cell line Aspc-1, validation set (Tzeng et al., 2007); cited from earlier work
[13] = tested on: H2122; assay: erlotinib sensitivity of validation lung cancer cell line; assay type: cell-based, human; settings: lung cancer cell line H2122, validation set
Description: as §2

[14] = tested on: H820; assay: as above; assay type: cell-based, human; settings: lung cancer cell line H820, validation set
Description: as §2

[15] = tested on: H322; assay: as above; assay type: cell-based, human; settings: lung cancer cell line H322, validation set
Description: as §2

[16] = tested on: HCC827; assay: as above; assay type: cell-based, human; settings: lung cancer cell line HCC827, validation set
Description: as §2

Compound: C#Cc1cccc(Nc2ncnc3cc(OCCOC)c(OCCOC)cc23)c1 [erlotinib]
- sensitivity to erlotinib [1]: resistant
- sensitivity to erlotinib [2]: sensitive
- sensitivity to erlotinib treatment [3]: sensitive
- sensitivity to erlotinib treatment [4]: sensitive
- sensitivity to erlotinib treatment [5]: Resistant
- sensitivity to erlotinib treatment [6]: sensitive
- sensitivity to erlotinib treatment [7]: sensitive
- sensitivity to erlotinib treatment [8]: Resistant
- sensitivity to erlotinib treatment [9]: Resistant
- sensitivity to erlotinib treatment [10]: Resistant
- sensitivity to erlotinib [11]: resistant
- sensitivity to erlotinib [12]: sensitive
- sensitivity to erlotinib [13]: resistant
- sensitivity to erlotinib [14]: resistant
- sensitivity to erlotinib [15]: sensitive
- sensitivity to erlotinib [16]: sensitive
